Experimental data taken from BindingDB's records for doi:10.1021/acs.biochem.6b00943 (University of Maryland, 2017).
Where “and” joins values, the source holds several entries; their conditions need not be identical. Equal values may be shown once.

Biological target: Reverse transcriptase protein (Human immunodeficiency virus 1, UniProt Q9WJQ1)
Test: HIV-1 RT Inhibitory Assay
Settings: 25 °C
Procedure: The final pH of the reactions was 7.7. After extension for 3 min, the reactions were stopped by adding 12.5 μL of 2× gel loading buffer and the samples were resolved in a 16% denaturing polyacrylamide−7 M urea gel.

## Cc1ccnc2c1NC(=O)c1cccnc1N2C1CC1 [BI-RG-587]
  IC50: 16 µM and 4.3 µM
